Columns and labels:
Assay in all cases: relative viability (nuclei count vs DMSO), 5 days (fraction); higher = more cells survive
[1] = compound: CC1=CC(=CC=C1)NC2=NC(=CS2)C3=CC=NC=C3 + Cc1nc(Nc2ncc(C(=O)Nc3c(C)cccc3Cl)s2)cc(N2CCN(CCO)CC2)n1 [Dasatinib] (partner 0.075 µM)
Outline: (§1)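 Lung cancer cell lines, seeded in 1536-well plates, were treated the following day by pin tool with a single drug or with five library-drug doses (not always all listed) in √10 steps on top of a fixed anchor-drug dose. Cells were fixed and nuclei stained in one step after 5 days, and nuclei were counted. Relative viability is the nuclei count for treated wells divided by that for vehicle wells, reported as medians of duplicate plates.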

[2] = compound: CC1=CC(=CC=C1)NC2=NC(=CS2)C3=CC=NC=C3 + CC(C)C[C@H](NC(=O)[C@H](Cc1ccccc1)NC(=O)c1cnccn1)B(O)O [Bortezomib] (partner 0.002 µM)
Outline: as §1

[3] = compound: Cc1ccc(NC(=O)c2ccc(CN3CCN(C)CC3)cc2)cc1Nc1nc(-c2cccnc2)cs1 [Masitinib] + CC(=O)Nc1cccc(-n2c(=O)n(C3CC3)c(=O)c3c(Nc4ccc(I)cc4F)n(C)c(=O)c(C)c32)c1 [Trametinib] (partner 0.02 µM)
Outline: as §1

[4] = compound: Cc1ccc(NC(=O)c2ccc(CN3CCN(C)CC3)cc2)cc1Nc1nc(-c2cccnc2)cs1 [Masitinib] + COc1cc2c(Oc3ccc(NC(=O)C4(C(=O)Nc5ccc(F)cc5)CC4)cc3F)ccnc2cc1OCCCN1CCOCC1 [Foretinib] (partner 0.25 µM)
Outline: as §1

Cell Line	relative viability ([1]; first compound 0.08 µM)	relative viability ([1]; first compound 0.253 µM)	relative viability ([1]; first compound 0.8 µM)	relative viability ([1]; first compound 2.53 µM)	relative viability ([1]; first compound 8 µM)	relative viability ([2]; first compound 0.08 µM)	relative viability ([2]; first compound 0.253 µM)	relative viability ([2]; first compound 0.8 µM)	relative viability ([2]; first compound 2.53 µM)	relative viability ([2]; first compound 8 µM)	relative viability ([3]; first compound 0.01 µM)	relative viability ([3]; first compound 0.03162 µM)	relative viability ([3]; first compound 0.1 µM)	relative viability ([3]; first compound 0.3162 µM)	relative viability ([3]; first compound 1 µM)	relative viability ([4]; first compound 0.01 µM)	relative viability ([4]; first compound 0.03162 µM)	relative viability ([4]; first compound 0.1 µM)	relative viability ([4]; first compound 0.3162 µM)	relative viability ([4]; first compound 1 µM)
NCI-H1993	0.532	0.513	0.52	0.545	0.485	1	1.03	0.885	0.894	0.993	0.483	0.437	0.578	0.508	0.538	0.864	0.862	0.828	0.638	0.742
CAL-12T	0.423	0.321	0.332	0.299	0.245	0.757	–	1.01	0.719	0.954	0.374	0.347	0.325	0.307	0.419	1.05	1.16	1.15	1.07	0.933
NCI-H1623	0.525	0.506	0.625	0.521	0.575	–	–	–	–	–	–	–	–	–	–	0.771	0.739	0.771	0.707	0.735
HCC-44	–	–	–	–	–	0.75	0.702	0.71	0.707	0.809	0.811	1.04	0.989	0.853	1.07	–	–	–	–	–
EKVX	0.208	0.518	0.552	0.446	0.306	1.01	0.994	0.747	0.957	0.696	0.38	0.27	0.353	–	0.249	–	0.663	0.53	0.458	0.68
NCI-H1666	0.734	0.737	0.699	0.522	0.582	0.503	0.553	0.41	0.388	0.409	0.807	0.893	0.873	0.565	0.788	–	0.889	0.91	1.03	1
NCI-H2170	0.581	0.574	0.609	0.564	0.489	–	–	–	–	–	1.08	0.76	1.01	0.984	0.98	1.05	1.04	1.16	1.02	0.994
NCI-H1734	0.471	0.435	0.491	0.503	0.538	0.906	0.874	0.941	0.919	0.36	0.682	0.661	0.759	0.696	0.663	0.922	0.914	0.898	1.05	0.811
Calu-6	–	–	–	–	–	0.951	0.838	0.88	0.94	0.926	–	–	–	–	–	0.814	0.822	0.931	0.825	0.862
EBC-1	–	–	–	–	–	0.434	0.463	0.602	0.517	0.282	–	–	–	–	–	0.112	0.096	0.108	0.0908	0.126
A-427	0.61	0.658	0.681	0.681	0.518	0.84	1.03	0.895	–	0.84	0.623	0.74	0.842	0.75	0.676	–	1.13	–	1.01	1
NCI-H2405	0.202	0.176	0.15	0.16	0.22	0.929	0.87	0.87	0.774	0.903	0.651	0.605	0.705	0.576	0.594	0.943	1.02	0.98	0.963	1.05
NCI-H1437	0.497	0.438	0.586	0.392	0.649	0.473	0.523	0.566	0.437	0.355	0.511	0.507	0.52	0.494	0.449	1.26	1.26	1.3	1.13	1.27
SK-MES-1	0.276	0.256	0.327	0.279	0.235	–	–	–	–	–	0.519	0.528	0.561	0.485	0.514	1	0.861	1.1	0.572	0.841
RERF-LC-KJ	0.533	0.694	0.64	0.573	0.515	0.963	1.07	0.786	0.813	0.7	0.769	0.836	0.834	0.809	0.763	0.734	0.883	0.987	0.746	0.797
NCI-H23	0.74	0.542	0.741	0.714	0.792	1.17	1.08	1.29	0.866	0.739	0.305	0.368	0.469	0.375	0.354	0.945	1.05	1.04	0.564	1.01
